Test results: PubChem BioAssay AID200 (DTP/NCI, 2004)
Where “and” joins values, the source holds several entries; their conditions need not be identical. Identical values can stand only once. Inconclusive results and toxic doses are left out.

System: B6C3F1 mice, B16 melanoma ip, median survival T/C
Assay: NCI In Vivo Anticancer Drug Screen. Data for tumor model B16 Melanoma (intraperitoneal) in B6C3F1 mice
Details: endpoint: median survival time, higher = longer survival
In short: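 Transplantable tumor in mice; treated vs vehicle control groups; survival or tumor size measured; value = T/C ratio.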

[1] = dose: 25.0 mg/kg/injection, schedule: Q01DX009 (ip), vehicle: saline with Tween-80
[2] = dose: 50.0 mg/kg/injection, schedule: Q01DX009 (ip), vehicle: saline with Tween-80
[3] = dose: 100.0 mg/kg/injection, schedule: Q01DX009 (ip), vehicle: saline with Tween-80
[4] = dose: 100.0 mg/kg/injection, schedule: Q01DX009 (ip), vehicle: saline
[5] = dose: 25.0 mg/kg/injection, schedule: Q01DX009 (ip), vehicle: distilled water + Tween-80
[6] = dose: 200.0 mg/kg/injection, schedule: Q01DX009 (ip), vehicle: saline with Tween-80
[7] = dose: 25.0 mg/kg/injection, schedule: Q01DX009 (ip), vehicle: Klucel (hydroxypropylcellulose) (HPC)

SMILES: COc1cc2cc(c1Cl)N(C)C(=O)/C=C/C1(C)OC1C(C)C1CC(O)(NC(=O)O1)C(OC)/C=C/C=C(\C)C2OC (stereo not drawn)
- T/C (dose: 4.0 micrograms/kg/injection, schedule: Q01DX009 (ip), vehicle: distilled water + alcohol): 117 % of control
- T/C (dose: 8.0 micrograms/kg/injection, schedule: Q01DX009 (ip), vehicle: distilled water + alcohol): 105 % of control
- T/C (dose: 16.0 micrograms/kg/injection, schedule: Q01DX009 (ip), vehicle: distilled water + alcohol): 112 % of control

SMILES: O=C(C/C(=N\C(=S)Nc1cc(C(F)(F)F)ccc1Cl)NO)N1CCCC1
- T/C [1]: 123 % of control
- T/C [2]: 116 % of control
- T/C [3]: 94 % of control

SMILES: OCC1(CO)COC2(CCCCC2)N1
- T/C (dose: 6.25 mg/kg/injection, schedule: Q01DX009 (ip), vehicle: saline): 95 % of control
- T/C (dose: 12.5 mg/kg/injection, schedule: Q01DX009 (ip), vehicle: saline): 119 % of control and 96 % of control and 103 % of control
- T/C (dose: 25.0 mg/kg/injection, schedule: Q01DX009 (ip), vehicle: saline): 114 % of control and 102 % of control and 104 % of control
- T/C (dose: 50.0 mg/kg/injection, schedule: Q01DX009 (ip), vehicle: saline): 114 % of control and 96 % of control and 104 % of control
- T/C [4]: 112 % of control and 94 % of control and 104 % of control
- T/C (dose: 200.0 mg/kg/injection, schedule: Q01DX009 (ip), vehicle: saline): 111 % of control and 99 % of control
- T/C (dose: 400.0 mg/kg/injection, schedule: Q01DX009 (ip), vehicle: saline): 109 % of control and 93 % of control

SMILES: COc1cc2c(cc1OC)-c1c3c(cc4c1[C@@H](C2)N(C)CC4)OCO3
- T/C (dose: 6.25 mg/kg/injection, schedule: Q01DX009 (ip), vehicle: distilled water + Tween-80): 98 % of control
- T/C (dose: 12.5 mg/kg/injection, schedule: Q01DX009 (ip), vehicle: distilled water + Tween-80): 89 % of control
- T/C [5]: 104 % of control
- T/C (dose: 50.0 mg/kg/injection, schedule: Q01DX009 (ip), vehicle: distilled water + Tween-80): 92 % of control

SMILES: CN(C)/N=N/c1nc[nH]c1C(N)=O
- T/C [5]: 104 % of control
- T/C [1]: 100 % of control
- T/C [2]: 119 % of control
- T/C (dose: 60.0 mg/kg/injection, schedule: Q04DX003 (ip), vehicle: carboxymethylcellulose (CMC)): 109 % of control
- T/C (dose: 60.0 mg/kg/injection, schedule: Q04DX003 (ip), vehicle: saline): 120 % of control
- T/C (dose: 80.0 mg/kg/injection, schedule: Q04DX003 (ip), vehicle: saline): 102 % of control
- T/C (dose: 100.0 mg/kg/injection, schedule: Q01DX009 (ip), vehicle: distilled water + Tween-80): 109 % of control
- T/C (dose: 120.0 mg/kg/injection, schedule: Q04DX003 (ip), vehicle: carboxymethylcellulose (CMC)): 113 % of control
- T/C (dose: 180.0 mg/kg/injection, schedule: Q04DX003 (ip), vehicle: carboxymethylcellulose (CMC)): 118 % of control
- T/C (dose: 180.0 mg/kg/injection, schedule: Q04DX003 (ip), vehicle: saline): 120 % of control
- T/C [6]: 93 % of control

SMILES: COC(=O)C1OC(OC2=C(c3ccc(OC)cc3)C(=O)C(OC3OC(C(=O)OC)C(OC(C)=O)C(OC(C)=O)C3OC(C)=O)=C(c3ccc(OC)cc3)C2=O)C(OC(C)=O)C(OC(C)=O)C1OC(C)=O (stereo not drawn)
- T/C (dose: 0.78 mg/kg/injection, schedule: Q01DX009 (ip), vehicle: Klucel (hydroxypropylcellulose) (HPC)): 109 % of control
- T/C (dose: 1.56 mg/kg/injection, schedule: Q01DX009 (ip), vehicle: Klucel (hydroxypropylcellulose) (HPC)): 109 % of control
- T/C (dose: 3.13 mg/kg/injection, schedule: Q01DX009 (ip), vehicle: Klucel (hydroxypropylcellulose) (HPC)): 99 % of control
- T/C (dose: 6.25 mg/kg/injection, schedule: Q01DX009 (ip), vehicle: Klucel (hydroxypropylcellulose) (HPC)): 102 % of control
- T/C (dose: 12.5 mg/kg/injection, schedule: Q01DX009 (ip), vehicle: Klucel (hydroxypropylcellulose) (HPC)): 93 % of control

SMILES: Cc1ccc(C2NC(=S)N3C(c4ccc(C)cc4)NC(=S)N23)cc1 (stereo not drawn)
- T/C [7]: 119 % of control
- T/C (dose: 50.0 mg/kg/injection, schedule: Q01DX009 (ip), vehicle: Klucel (hydroxypropylcellulose) (HPC)): 114 % of control
- T/C (dose: 100.0 mg/kg/injection, schedule: Q01DX009 (ip), vehicle: Klucel (hydroxypropylcellulose) (HPC)): 118 % of control
- T/C (dose: 200.0 mg/kg/injection, schedule: Q01DX009 (ip), vehicle: Klucel (hydroxypropylcellulose) (HPC)): 109 % of control and 88 % of control
- T/C (dose: 400.0 mg/kg/injection, schedule: Q01DX009 (ip), vehicle: Klucel (hydroxypropylcellulose) (HPC)): 114 % of control and 105 % of control
- T/C (dose: 800.0 mg/kg/injection, schedule: Q01DX009 (ip), vehicle: Klucel (hydroxypropylcellulose) (HPC)): 101 % of control

SMILES: NC(CNc1ccc(O)cc1)C(=O)O (stereo not drawn)
- T/C (dose: 75.0 mg/kg/injection, schedule: Q01DX009 (ip), vehicle: saline): 111 % of control
- T/C [4]: 103 % of control
- T/C (dose: 150.0 mg/kg/injection, schedule: Q01DX009 (ip), vehicle: saline): 101 % of control

SMILES: COc1cccc2c1C(=O)c1c(O)c3c(c(O)c1C2=O)C[C@@](O)(C(C)=O)C[C@@H]3OC1CC(N(CCO)Cc2ccccc2)C(O)C(C)O1 (stereo partly drawn)
- T/C (dose: 12.5 mg/kg/injection, schedule: Q01DX001 (ip), vehicle: water): 120 % of control
- T/C (dose: 25.0 mg/kg/injection, schedule: Q01DX001 (ip), vehicle: water): 116 % of control

SMILES: CCC1=C2C(=O)c3ccccc3C2=C(C)S(=O)(=O)O1
- T/C (dose: 1.56 mg/kg/injection, schedule: Q01DX009 (ip), vehicle: saline with Tween-80): 98 % of control
- T/C (dose: 3.12 mg/kg/injection, schedule: Q01DX009 (ip), vehicle: saline with Tween-80): 98 % of control
- T/C (dose: 6.25 mg/kg/injection, schedule: Q01DX009 (ip), vehicle: saline with Tween-80): 91 % of control and 93 % of control

SMILES: O=C1NC(=O)C2(CCc3ccc(N(CCCl)CCCl)cc32)N1 (stereo not drawn)
- T/C (dose: 1.5 mg/kg/injection, schedule: Q01DX009 (ip), vehicle: saline with Tween-80): 122 % of control
- T/C (dose: 6.25 mg/kg/injection, schedule: Q01DX009 (oral), vehicle: saline with Tween-80): 100 % of control
- T/C (dose: 12.0 mg/kg/injection, schedule: Q01DX009 (ip), vehicle: saline with Tween-80): 157 % of control
- T/C (dose: 12.5 mg/kg/injection, schedule: Q01DX009 (oral), vehicle: saline with Tween-80): 115 % of control and 108 % of control
- T/C (dose: 24.0 mg/kg/injection, schedule: Q01DX009 (ip), vehicle: saline with Tween-80): 202 % of control
- T/C (dose: 25.0 mg/kg/injection, schedule: Q01DX009 (oral), vehicle: saline with Tween-80): 109 % of control and 105 % of control
- T/C (dose: 48.0 mg/kg/injection, schedule: Q01DX009 (ip), vehicle: saline with Tween-80): 236 % of control
- T/C (dose: 50.0 mg/kg/injection, schedule: Q01DX009 (oral), vehicle: saline with Tween-80): 121 % of control and 104 % of control
- T/C (dose: 100.0 mg/kg/injection, schedule: Q01DX009 (oral), vehicle: saline with Tween-80): 109 % of control and 117 % of control
- T/C (dose: 200.0 mg/kg/injection, schedule: Q01DX009 (oral), vehicle: saline with Tween-80): 117 % of control and 101 % of control
- T/C (dose: 400.0 mg/kg/injection, schedule: Q01DX009 (oral), vehicle: saline with Tween-80): 109 % of control

SMILES: Cc1[nH]ccc2c(C)c3nc4ccccc4c3cc12
- T/C [7]: 159 % of control

SMILES: O=C1c2ccccc2C(=O)c2c(NCCNCCO)ccc(NCCNCCO)c21
- T/C (dose: 1.0 mg/kg/injection, schedule: Q01DX009 (ip), vehicle: other): 151 % of control
- T/C (dose: 2.0 mg/kg/injection, schedule: Q01DX009 (ip), vehicle: other): 180 % of control and 186 % of control
- T/C (dose: 2.5 mg/kg/injection, schedule: Q01DX009 (ip), vehicle: water): 195 % of control
- T/C (dose: 4.0 mg/kg/injection, schedule: Q01DX009 (ip), vehicle: other): 195 % of control and 248 % of control
- T/C (dose: 4.0 mg/kg/injection, schedule: Q01DX009 (ip), vehicle: saline): 179 % of control
- T/C (dose: 5.0 mg/kg/injection, schedule: Q01DX009 (ip), vehicle: water): 205 % of control
- T/C (dose: 8.0 mg/kg/injection, schedule: Q01DX009 (ip), vehicle: other): 218 % of control and 243 % of control
- T/C (dose: 8.0 mg/kg/injection, schedule: Q01DX009 (ip), vehicle: saline): 234 % of control
- T/C (dose: 10.0 mg/kg/injection, schedule: Q01DX009 (ip), vehicle: water): 215 % of control
- T/C (dose: 16.0 mg/kg/injection, schedule: Q01DX009 (ip), vehicle: other): 215 % of control and 231 % of control
- T/C (dose: 16.0 mg/kg/injection, schedule: Q01DX009 (ip), vehicle: saline): 292 % of control
- T/C (dose: 20.0 mg/kg/injection, schedule: Q01DX009 (ip), vehicle: water): 220 % of control
- T/C (dose: 32.0 mg/kg/injection, schedule: Q01DX009 (ip), vehicle: saline): 292 % of control
- T/C (dose: 62.5 mg/kg/injection, schedule: Q01DX001 (ip), vehicle: saline): 153 % of control

SMILES: COc1ccc2c(c1[N+](=O)[O-])CC[C@@H]1[C@@H]2CC[C@]2(C)C(=O)CC[C@@H]12
- T/C [2]: 94 % of control and 95 % of control
- T/C [3]: 91 % of control and 108 % of control
- T/C [6]: 90 % of control
- T/C (dose: 400.0 mg/kg/injection, schedule: Q01DX009 (ip), vehicle: saline with Tween-80): 91 % of control
- T/C (dose: 800.0 mg/kg/injection, schedule: Q01DX009 (ip), vehicle: saline with Tween-80): 91 % of control
